From US20060051352A1, “CEA binding agents and compositions to reverse CEA-mediated tumorigenic effects on human cancer cells, restore sensitivity to drug induced apoptosis and uses thereof” (priority 2004, published 2006)
Values belong to the molecule of their own block, whether it stands above or below them. Bridge positions count the residues as written; N and C are the ends.

Experiments:
[1] = system: human colorectal carcinoma cell lines, SW-1222 and LS-180; settings: A20 Fab 100 μg/ml ex vivo, 0.5 mg/dose iv daily day 3-8; taxol 5 nM ex vivo, 5 mg/kg ip day 4; analysis day 9
Description: The efficacy was investigated by a treatment protocol in which the ability of the treated cells to conform to normal colonic tissue architecture and to fail to form tumors, was assessed.
Several experiments were conducted in which the effect on two human colorectal carcinoma cell lines (test cells), when mixed in a defined proportion with normal fetal rat colonic cells and grown as aggregates implanted under the kidney capsule of nude mice, of taxol alone, taxol in combination with irrelevant isotype matched control P3X Fabs, and taxol in combination with A20 Fabs, was compared. The test cells in the “mini-colons” that developed after 7-10 days were assessed for either conformance to normal crypt-like tissue architecture or for formation of tumors (43).
With this in mind, the treatment regimen employed subjecting the test cells to the maximum possible dose over the course of the assay. This regimen included three administrations of A20 Fabs to the test cells in the ex vivo portion of the assay (pre-treatment, during which the aggregates are constructed), followed by daily intravenous injections during the in vivo growth of the implanted aggregates (therapeutic treatment). Pre-treatment of the test cells with A20 Fabs at 100 μg/ml commenced on day 0. […]

[2] = system: human colorectal carcinoma cells; test: Lung metastases of human colorectal carcinoma cells in nude mice; format: in vivo; settings: after 30 days; PEG-A20Fab 200 μg iv, Taxol 5 mg/kg ip every 6 days; versus untreated animals
Description: Mice were inoculated by intravenous injection of human colorectal carcinoma cells on day 0. Treatment was initiated either immediately following inoculation or 12 hours thereafter. PEGylated A20 Fab fragments (PEG-A20Fab) were administered intravenously (200 μg or 7-8 mg/kg) every day for the first 2 days followed by every 3 days thereafter. Taxol was administered at 5 mg/kg every 6 days (ip). After 30 days, the number of lung surface colonies, representing metastases, were counted.

[3] = system: CEA-mediated intercellular adhesion; settings: from references (16), (29); cited from earlier work
[4] = target: T1, human carcinoembryonic antigen (CEA), wild type (human, UniProt P06731 35-685, glycophosphatidyl inositol (GPI) membrane anchor); test: cell-based or functional assay
T1 sequence (looked up): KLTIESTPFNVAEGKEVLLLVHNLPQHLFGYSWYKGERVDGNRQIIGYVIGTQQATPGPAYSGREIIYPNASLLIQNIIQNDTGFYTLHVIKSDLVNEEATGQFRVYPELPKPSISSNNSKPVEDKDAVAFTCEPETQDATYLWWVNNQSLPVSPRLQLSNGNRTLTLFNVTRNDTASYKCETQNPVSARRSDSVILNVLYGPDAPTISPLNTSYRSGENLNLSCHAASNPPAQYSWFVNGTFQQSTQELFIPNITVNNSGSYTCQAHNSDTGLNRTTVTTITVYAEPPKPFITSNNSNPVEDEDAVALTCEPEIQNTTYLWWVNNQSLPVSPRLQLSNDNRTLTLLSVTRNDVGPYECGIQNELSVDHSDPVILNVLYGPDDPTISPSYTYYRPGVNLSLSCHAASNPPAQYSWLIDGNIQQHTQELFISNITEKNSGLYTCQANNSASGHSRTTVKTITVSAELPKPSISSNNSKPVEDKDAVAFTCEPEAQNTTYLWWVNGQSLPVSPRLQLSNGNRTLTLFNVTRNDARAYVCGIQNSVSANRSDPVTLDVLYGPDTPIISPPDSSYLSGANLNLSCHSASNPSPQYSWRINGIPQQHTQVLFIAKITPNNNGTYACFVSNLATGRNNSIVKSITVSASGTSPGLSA

Molecule: CC(=O)O[C@H]1C(=O)[C@@]2(C)[C@H]([C@H](OC(=O)c3ccccc3)[C@]3(O)C[C@H](OC(=O)[C@H](O)[C@@H](NC(=O)c4ccccc4)c4ccccc4)C(C)=C1C3(C)C)[C@]1(OC(C)=O)CO[C@@H]1C[C@@H]2O [Taxol, Paclitaxel]
tumor growth in mini-colons [1]: much larger, more solid and less differentiated
number of lung surface colonies [2]: no effect

Molecule: H-CQNDTGC-OH (disulfide 1-7; also: synthetic cyclic peptide) [cyclized peptide representing subdomain 3 of the CEA N domain]
inhibition of CEA-mediated intercellular adhesion [3]: effective in inhibiting CEA-mediated intercellular adhesion

release of CEA-imposed myogenic differentiation block, % fusion of L6 (CEA) cells at 100 µM peptide [4]: 28 % fusion
B1: cyclized peptide H-CGNRQIIC-OH (subdomain 2) (peptide)
peptide: H-CGNRQIIC-OH
modifications: disulfide 1-8
SMILES: CC[C@H](C)[C@@H]1NC(=O)[C@H](CCC(N)=O)NC(=O)[C@H](CCCNC(=N)N)NC(=O)[C@H](CC(N)=O)NC(=O)CNC(=O)[C@@H](N)CSSC[C@@H](C(=O)O)NC(=O)[C@H]([C@@H](C)CC)NC1=O

release of CEA-imposed myogenic differentiation block, % fusion of L6 (CEA) cells at 100 µM peptide [4]: 18 % fusion
B2: cyclized peptide H-CGYSWYKC-OH (subdomain 1) (peptide)
peptide: H-CGYSWYKC-OH
modifications: disulfide 1-8
SMILES: NCCCC[C@@H]1NC(=O)[C@H](Cc2ccc(O)cc2)NC(=O)[C@H](Cc2c[nH]c3ccccc23)NC(=O)[C@H](CO)NC(=O)[C@H](Cc2ccc(O)cc2)NC(=O)CNC(=O)[C@@H](N)CSSC[C@@H](C(=O)O)NC1=O

release of CEA-imposed myogenic differentiation block, % fusion of L6 (CEA) cells at 100 µM peptide [4]: 36 % fusion
B3: cyclized peptide H-CQNDTGC-OH (subdomain 3) (peptide)
peptide: H-CQNDTGC-OH
modifications: disulfide 1-7
SMILES: C[C@@H](O)[C@@H]1NC(=O)[C@H](CC(=O)O)NC(=O)[C@H](CC(N)=O)NC(=O)[C@H](CCC(N)=O)NC(=O)[C@@H](N)CSSC[C@@H](C(=O)O)NC(=O)CNC1=O
